In US12528814B2, “Bifunctional degraders of interleukin-1 receptor-associated kinases and therapeutic use thereof” (NURIX THERAPEUTICS, INC., priority 2020, dated 2026):
Like-named read-outs stand apart in the source and are kept apart here.

Assays:
[1] = target: T1, IRAK4 (Homo sapiens (Human), UniProt Q9NWZ3); test: IRAK4 Degradation HiBiT Assay; details: HiBiT-tagged Jurkat cells, 4 hrs; for Dmax: Jurkat; for DC50: read-out: Cellular IRAK4 HiBiT: DC50
Target sequence in this assay (Q9NWZ3 whole entry): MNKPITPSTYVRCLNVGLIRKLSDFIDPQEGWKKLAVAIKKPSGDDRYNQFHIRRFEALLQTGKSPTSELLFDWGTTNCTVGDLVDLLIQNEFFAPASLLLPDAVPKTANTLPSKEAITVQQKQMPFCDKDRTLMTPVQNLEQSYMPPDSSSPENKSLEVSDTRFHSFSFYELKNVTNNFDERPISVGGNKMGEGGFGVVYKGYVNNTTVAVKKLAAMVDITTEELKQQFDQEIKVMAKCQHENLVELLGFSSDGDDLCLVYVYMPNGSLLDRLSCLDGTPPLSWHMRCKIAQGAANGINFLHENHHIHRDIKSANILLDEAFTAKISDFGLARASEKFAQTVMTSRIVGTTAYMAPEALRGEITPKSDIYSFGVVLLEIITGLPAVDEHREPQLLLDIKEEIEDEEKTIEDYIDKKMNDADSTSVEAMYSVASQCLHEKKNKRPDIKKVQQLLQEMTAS

[2] = target: T1, IRAK4; test: IRAK4 Biochemical HTRF Kinase Assay; details: read-out: IRAK4 HTRF biochemical: IC50
How it was run: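 IC50 values derive from non-linear regression of sixteen concentrations in duplicate. Kinase reaction ran 90 min at ambient temperature after adding 5 μM STK-S1 substrate, 10 mM ATP and 10 mM MgCl2 (reaction-solution levels, pre-dilution to 10 μl); phospho-peptide detected by HTRF after 60 min.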
Target sequence in this assay (Q9NWZ3 whole entry, species assumed): as the sequence (Q9NWZ3 whole entry) above

[3] = read-out: Cellular IRAK4 HiBiT: Dmax, Table 4
[4] = read-out: Cellular IRAK4 HiBiT: Dmax, Table 5, multiple runs

SMILES | Dmax [1, 3] | DC50 ([1]; Table 4) | DC50 ([1]; Table 5, multiple runs) | IC50 ([2]; Table 4) | IC50 ([2]; Table 5, multiple runs) | Dmax [1, 4]
Cc1ncsc1-c1ccc(CNC(=O)[C@@H]2C[C@@H](O)CN2C(=O)[C@@H](NC(=O)C2(F)CC2)C(C)(C)C)c(OCCCCCCCCCC(=O)N2CCN(c3nnc(-c4cnc(-c5ccc6cc(C#N)cnn56)cc4NC(C)C)s3)CC2)c1 [Example 44, (2S,4R)—N-(2-((10-(4-(5-(6-(3-cyanopyrrolo[1,2-b]pyridazin-7-yl)-4-(isopropylamino)pyridin-3-yl)-1,3,4-thiadiazol-2-yl)piperazin-1-yl)-10-oxodecyl)oxy)-4-(4-methylthiazol-5-yl)benzyl)-1-((S)-2-(1-fluorocyclopropane-1-carboxamido)-3,3-dimethylbutanoyl)-4-hydroxypyrrolidine-2-carboxamide] | 33% | > 10000 nM | > 9980 nM | 702 nM | 702 nM | 
Cc1ncsc1-c1ccc(CNC(=O)[C@@H]2C[C@@H](O)CN2C(=O)C(NC(=O)[C@H]2CC[C@H](C(=O)N3CCN(c4nnc(-c5cnc(-c6ccc7cc(C#N)cnn67)cc5NC(C)C)s4)CC3)CC2)C(C)(C)C)cc1 (stereo partly drawn) [Example 45, (2S,4R)-1-((S)-2-((1r,4S)-4-(4-(5-(6-(3-cyanopyrrolo[1,2-b]pyridazin-7-yl)-4-(isopropylamino)pyridin-3-yl)-1,3,4-thiadiazol-2-yl)piperazine-1-carbonyl)cyclohexane-1-carboxamido)-3,3-dimethylbutanoyl)-4-hydroxy-N-(4-(4-methylthiazol-5-yl)benzyl)pyrrolidine-2-carboxamide] | 67% | 4330 nM | 2490 nM | 19 nM | 19 nM | 83%
Cc1ncsc1-c1ccc(CNC(=O)[C@@H]2C[C@@H](O)CN2C(=O)C(NC(=O)[C@H]2CC[C@H](CN3CCN(c4nnc(-c5cnc(-c6ccc7cc(C#N)cnn67)cc5NC(C)C)s4)CC3)CC2)C(C)(C)C)cc1 (stereo partly drawn) [Example 46, (2S,4R)-1-((S)-2-((1r,4S)-4-((4-(5-(6-(3-cyanopyrrolo[1,2-b]pyridazin-7-yl)-4-(isopropylamino)pyridin-3-yl)-1,3,4-thiadiazol-2-yl)piperazin-1-yl)methyl)cyclohexane-1-carboxamido)-3,3-dimethylbutanoyl)-4-hydroxy-N-(4-(4-methylthiazol-5-yl)benzyl)pyrrolidine-2-carboxamide] | 78% | 1570 nM | 1240 nM | 15.4 nM | 15.4 nM | 73%
Cc1ncsc1-c1ccc(CNC(=O)[C@@H]2C[C@@H](O)CN2C(=O)[C@@H](NC(=O)C2(F)CC2)C(C)(C)C)c(OCCOCCOCCOCCOCCOCCC(=O)N2CCN(c3nnc(-c4cnc(-c5ccc6cc(C#N)cnn56)cc4NC(C)C)s3)CC2)c1 [Example 48, (2S,4R)—N-(2-((18-(4-(5-(6-(3-cyanopyrrolo[1,2-b]pyridazin-7-yl)-4-(isopropylamino)pyridin-3-yl)-1,3,4-thiadiazol-2-yl)piperazin-1-yl)-18-oxo-3,6,9,12,15-pentaoxaoctadecyl)oxy)-4-(4-methylthiazol-5-yl)benzyl)-1-((S)-2-(1-fluorocyclopropane-1-carboxamido)-3,3-dimethylbutanoyl)-4-hydroxypyrrolidine-2-carboxamide] | 119% | 691 nM | 691 nM | 4 nM | 4 nM | 119%
Cc1ncsc1-c1ccc(CNC(=O)[C@@H]2C[C@@H](O)CN2C(=O)[C@@H](NC(=O)C2(F)CC2)C(C)(C)C)c(OCCOCCOCCOCCC(=O)N2CCN(c3nnc(-c4cnc(-c5ccc6cc(C#N)cnn56)cc4NC(C)C)s3)CC2)c1 [Example 49, (2S,4R)—N-(2-(2-(2-(2-(3-(4-(5-(6-(3-cyanopyrrolo[1,2-b]pyridazin-7-yl)-4-(isopropylamino)pyridin-3-yl)-1,3,4-thiadiazol-2-yl)piperazin-1-yl)-3-oxopropoxy)ethoxy)ethoxy)ethoxy)-4-(4-methylthiazol-5-yl)benzyl)-1-((S)-2-(1-fluorocyclopropane-1-carboxamido)-3,3-dimethylbutanoyl)-4-hydroxypyrrolidine-2-carboxamide] | 111% | 231 nM | 231 nM | 4.6 nM | 4.6 nM | 111%
CN[C@@H](C)C(=O)N[C@H](C(=O)N1CCC[C@H]1c1nc(C(=O)c2cccc(OCCOCCC(=O)N3CCN(c4nnc(-c5cnc(-c6ccc7cc(C#N)cnn67)cc5NC(C)C)s4)CC3)c2)cs1)C1CCCCC1 [Example 50, (S)—N—((S)-2-((S)-2-(4-(3-(2-(3-(4-(5-(6-(3-cyanopyrrolo[1,2-b]pyridazin-7-yl)-4-(isopropylamino)pyridin-3-yl)-1,3,4-thiadiazol-2-yl)piperazin-1-yl)-3-oxopropoxy)ethoxy)benzoyl)thiazol-2-yl)pyrrolidin-1-yl)-1-cyclohexyl-2-oxoethyl)-2-(methylamino)propanamide] | 67% | 197 nM | 197 nM | 3.1 nM | 3.2 nM | 67%
CN[C@@H](C)C(=O)N[C@H](C(=O)N1C[C@@H](NC(=O)CCCCC(=O)N2CCN(c3nnc(-c4cnc(-c5ccc6cc(C#N)cnn56)cc4NC(C)C)s3)CC2)C[C@H]1C(=O)N[C@@H]1CCCc2ccccc21)C1CCCCC1 [Example 51, (2S,4S)-4-(6-(4-(5-(6-(3-cyanopyrrolo[1,2-b]pyridazin-7-yl)-4-(isopropylamino)pyridin-3-yl)-1,3,4-thiadiazol-2-yl)piperazin-1-yl)-6-oxohexanamido)-1-((S)-2-cyclohexyl-2-((S)-2-(methylamino)propanamido)acetyl)-N—((R)-1,2,3,4-tetrahydronaphthalen-1-yl)pyrrolidine-2-carboxamide] | 48% | 638 nM | 502 nM | 2 nM | 2 nM | 47%
CN[C@@H](C)C(=O)N[C@H](C(=O)N1C[C@@H](NC(=O)CCCCCCC(=O)N2CCN(c3nnc(-c4cnc(-c5ccc6cc(C#N)cnn56)cc4NC(C)C)s3)CC2)C[C@H]1C(=O)N[C@@H]1CCCc2ccccc21)C1CCCCC1 [Example 52, (2S,4S)-4-(8-(4-(5-(6-(3-cyanopyrrolo[1,2-b]pyridazin-7-yl)-4-(isopropylamino)pyridin-3-yl)-1,3,4-thiadiazol-2-yl)piperazin-1-yl)-8-oxooctanamido)-1-((S)-2-cyclohexyl-2-((S)-2-(methylamino)propanamido)acetyl)-N—((R)-1,2,3,4-tetrahydronaphthalen-1-yl)pyrrolidine-2-carboxamide] | 70% | 422 nM | 422 nM | 1.9 nM | 1.9 nM | 70%
CN[C@@H](C)C(=O)N[C@H](C(=O)N1C[C@@H](NC(=O)CCCCCCCCCCC(=O)N2CCN(c3nnc(-c4cnc(-c5ccc6cc(C#N)cnn56)cc4NC(C)C)s3)CC2)C[C@H]1C(=O)N[C@@H]1CCCc2ccccc21)C1CCCCC1 [Example 53, (2S,4S)-4-(12-(4-(5-(6-(3-cyanopyrrolo[1,2-b]pyridazin-7-yl)-4-(isopropylamino)pyridin-3-yl)-1,3,4-thiadiazol-2-yl)piperazin-1-yl)-12-oxododecanamido)-1-((S)-2-cyclohexyl-2-((S)-2-(methylamino)propanamido)acetyl)-N—((R)-1,2,3,4-tetrahydronaphthalen-1-yl)pyrrolidine-2-carboxamide] | 48% | 993 nM | 8750 nM | 5.8 nM | 5.8 nM | 82%
CN[C@@H](C)C(=O)N[C@H](C(=O)N1C[C@@H](NC(=O)CCOCCC(=O)N2CCN(c3nnc(-c4cnc(-c5ccc6cc(C#N)cnn56)cc4NC(C)C)s3)CC2)C[C@H]1C(=O)N[C@@H]1CCCc2ccccc21)C1CCCCC1 [Example 54, (2S,4S)-4-(3-(3-(4-(5-(6-(3-cyanopyrrolo[1,2-b]pyridazin-7-yl)-4-(isopropylamino)pyridin-3-yl)-1,3,4-thiadiazol-2-yl)piperazin-1-yl)-3-oxopropoxy)propanamido)-1-((S)-2-cyclohexyl-2-((S)-2-(methylamino)propanamido)acetyl)-N—((R)-1,2,3,4-tetrahydronaphthalen-1-yl)pyrrolidine-2-carboxamide] | 48% | 816 nM | 794 nM | 0.6 nM | 0.6 nM | 48%
CN[C@@H](C)C(=O)N[C@H](C(=O)N1CCC[C@H]1c1nc(C(=O)c2cccc(OCCOCCOCCOCCC(=O)N3CCN(c4nnc(-c5cnc(-c6ccc7cc(C#N)cnn67)cc5NC(C)C)s4)CC3)c2)cs1)C1CCCCC1 [Example 55, (S)—N—((S)-2-((S)-2-(4-(3-(2-(2-(2-(3-(4-(5-(6-(3-cyanopyrrolo[1,2-b]pyridazin-7-yl)-4-(isopropylamino)pyridin-3-yl)-1,3,4-thiadiazol-2-yl)piperazin-1-yl)-3-oxopropoxy)ethoxy)ethoxy)ethoxy)benzoyl)thiazol-2-yl)pyrrolidin-1-yl)-1-cyclohexyl-2-oxoethyl)-2-(methylamino)propanamide] | 45% | 934 nM | 937 nM | 6.6 nM | 6.6 nM | 45%
